Four compounds from patent US4138485A, “Phenylalanine derivatives” (Kyowa Hakko Kogyo Kabushiki Kaisha, priority 1976, dated 1979) can be followed below.

The subject of one data set is Cholesterol in the serum. Kind of data set: Cholesterol-lowering activity on normal rats of Wistar strain (serum cholesterol, liver weight). The format is in vivo, rats (male Wistar strain). As to conditions: 0.3% in diet; for B - Ratio of decrease of liver weight: continuous administration for 4 days; for C - Ratio of decrease of cholesterol / D - Ratio of increase of liver weight: continuous administration for 14 days. Summed up: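 Male Wistar rats (150–180 g), groups of 5; serum separated from blood taken by decapitation. Serum cholesterol measured by Zurkowski's method as modified by Shibata; livers excised and weighed. Values expressed as % of normal rats fed powdered diet without compound.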

A short description of the next data set: Acute toxicity in rats. As to conditions: in vivo; rat, oral administration, after one week; read-out: Acute Toxicity (LD50), C. Summed up: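 Male Wistar rats (~200 g), groups of 5, given compounds orally; survival ratio recorded after one week.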
The next data set deals with Mouse. Kind of data set: Tonic convulsion of hind paw of mice (stimulus by hand touch). The format is in vivo, mice (male dd-strain). As to conditions: oral, 30 to 360 minutes. As to the method: (1) Acute toxicity and tonic convulsion in hind paw:
The acute toxicity and tonic convulsion occured by stimulus by hand touch were determined in the following manner to give the results shown in Table 2.
(c) Tonic convulsion of hind paw of mice:
38 Groups, each consisting of 5 mice (male dd-strain, weight -- 18 to 24 g), were used for the test and control groups. The compounds shown in Table 2 were orally administered to the mice. At 30, 60, 120, 180 and 360 minutes after the administration, stimulus by hand touch was given to the mice and the tonic convulsion was observed.

The nature of the next data set: Acute toxicity in mice. As to conditions: in vivo; mouse, oral administration, after one week; read-out: Acute Toxicity (LD50), A. A digest of the protocol: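 Male dd-strain mice (18 to 24 g), groups of 5, dosed orally or intraperitoneally with test compounds. Survival ratio recorded one week after administration.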
The subject of data set [1] is hyperlipemia induced by Triton. Kind of data set: Cholesterol-lowering activity on hyperlipemia induced by Triton in mice. The format is in vivo, mice (male dd-strain). As to conditions: Mus musculus, po, 43 h, read-out: Ratio of the reduction of cholesterol. A digest of the protocol:
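Serum cholesterol was read colorimetrically at 620 mμ (Zurkowski method, Shibata modification) from blood taken 43 h after Triton challenge. Compound was given p.o. at 100 mg/kg twice, right after Triton and at 20 h, to groups of nine male dd mice weighing 19–21 g.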

As for `COC(=O)[C@H](Cc1ccccc1)NC(=O)SCc1ccc(F)cc1` [Compound 12, N-(4-fluorobenzylthiocarbonyl)-L-phenylalanine methylester], in the data set on Cholesterol in the serum, the “B - Ratio of decrease of liver weight” value is listed as 45.9%. Besides, the 50% lethal dose (LD50) at 168 h is over 100 mg/kg in “Acute toxicity in rats” and over 1000 mg/kg in the data set “Acute toxicity in mice”. Moreover, the Tonic convulsion result in the data set with Mouse (D = 1000 mg/kg) is given as “+”. For the same compound, the inhibition in vivo at 100 mg/kg in data set [1] amounted to 76%.
With `COC(=O)[C@H](Cc1ccccc1)NC(=O)SCc1ccccc1` [Compound 18, N-benzylthiocarbonyl-L-phenylalanine methylester], in the data set on Cholesterol in the serum, the “B - Ratio of decrease of liver weight” value came to 39%, the “C - Ratio of decrease of cholesterol” value amounted to 3.0% and the “D - Ratio of increase of liver weight” value was 92%. In the data set “Acute toxicity in rats”, the LD50 at 168 h was over 200 mg/kg. Besides, the Tonic convulsion entry in the data set with Mouse (D = 500 mg/kg) is “+”. Further, the LD50 at 168 h in “Acute toxicity in mice” was over 1000 mg/kg. The inhibition in vivo at 100 mg/kg in data set [1] is 80%.
`O=C(NC(Cc1ccccc1)C(=O)O)SCc1ccccc1` (racemic) [Compound 17, N-benzylthiocarbonyl-D,L-phenylalanine]: in the data set on Cholesterol in the serum, the “B - Ratio of decrease of liver weight” value was found to be 35.2%. Also, the LD50 at 168 h in the data set “Acute toxicity in rats” is over 100 mg/kg; in “Acute toxicity in mice”, over 1000 mg/kg. In addition, in the data set with Mouse (D = 1000 mg/kg), the Tonic convulsion entry is listed as “+”. Also, the inhibition in vivo at 100 mg/kg in data set [1] came to 95%.
Turning to `O=C(N[C@@H](Cc1ccccc1)C(=O)O)SCc1ccccc1` [Compound 16, N-benzylthiocarbonyl-L-phenylalanine], in the data set with Cholesterol in the serum, the “C - Ratio of decrease of cholesterol” value was found to be 9.2% and the “D - Ratio of increase of liver weight” value stood at 79%. Also, the LD50 at 168 h in “Acute toxicity in rats” was over 200 mg/kg. Further, in the data set with Mouse (D = 500 mg/kg), the Tonic convulsion entry is given as “+”. For the same compound, in “Acute toxicity in mice”, the LD50 at 168 h was over 1000 mg/kg. In data set [1], the inhibition in vivo at 100 mg/kg was determined as 86%.

Usually LD50 stands for the dose expected to kill half of the subjects tested.
